The source of these data is patent US20190344265A1, “Networked Cell Holder Chip” (priority 2018, published 2019).

The test has as its system breast cancer cells. Nature of the test: Cell protrusion length of breast cancer cells in the networked cell-holder chip (time course imaging). It is filed as cell-based.

Excerpt: To load the cells into the chip of the present invention, a medium containing suspended cells is dropped onto the surface of the well plate of a chip of the present invention via a multichannel pipette or liquid handling system. In some embodiments of the present invention, 20-ml of the medium is dropped onto a chip of the present invention having a width of 86 mm, a length of 128 mm, and height of 14 mm. The chip is loaded on one of the receptors 302 of the bucket rotor 300. The bucket rotor is spun by the centrifuge 304 to drive the cells into the microwells of the chip. […] Filter papers (e.g., manufactured by Whatman) are used to swipe away the unloaded cells. Finally, the cells are cultured at 37° C. in the chip 100 a humidified atmosphere with 5% CO2, to enable protrusions to extend in the microchannels. The cells are also stained (for example, with green fluorescent protein—GFP) to enhance visibility of the cells and protrusions. […] The loaded breast cancer cells in both chips were incubated overnight. In the chip that was to be treated with the drug, the medium was replaced by a fresh culture medium mixed with paclitaxel concentration of 0.5 μM, after the incubation period.

Take `CC(=O)O[C@H]1C(=O)[C@@]2(C)[C@H]([C@H](OC(=O)c3ccccc3)[C@]3(O)C[C@H](OC(=O)[C@H](O)[C@@H](NC(=O)c4ccccc4)c4ccccc4)C(C)=C1C3(C)C)[C@]1(OC(C)=O)CO[C@@H]1C[C@@H]2O` [paclitaxel]: the “time until effects of the drug on the cancer cells were clear” value (breast cancer cells in chip, paclitaxel 0.5 μM) is reported as “within one hour”. Besides, the “normalized length of cell protrusion over time” value (breast cancer cells incubated overnight in chip, then medium with paclitaxel 0.5 μM, sample of 51 cells (FIG. 29), untreated comparison 64 cells (FIG. 28)) is “reduces the length of the protrusions”.
